Values of other authors as cited in patent publication US20170247647A1, “FLAVOR NANOEMULSIONS AND METHODS OF PREPARING THE SAME” (International Flavors & Fragrances Inc., priority 2014, published 2017).

Experiments:
[1] = commercial surfactant

Row | Molecule | Water Solubility (g/L, approx.) | HLB [1]
1 | CCCC(=O)OCC [ethyl butyrate] | ~6 g/L | –
2 | Tween™ 20 | – | 16.7
3 | Tween™ 80 | – | 15
4 | CCOC(C)=O [ethyl acetate] | ~90 g/L | –
5 | CSC [dimethyl sulfide] | insoluble | –
6 | Tween™ 60 | – | 14.9
7 | CCCC(=O)OC [methyl butyrate] | ~15 g/L | –
8 | CCOC(=O)CC [ethyl propionate] | ~14 g/L | –
